Test results taken from the supplement of paper PMC5844555.

Key:
Experiment in all cases: 3' UTR reporter interaction score (median-centred robust z-score of log2 firefly/Renilla activity); higher = less repression of the 3' UTR reporter
Settings in all cases: HEK293T; 48 h
TP53 = system: TP53
How it was run: (§1)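 HEK293T cells were seeded at 10,000 per well in 96-well plates and co-transfected with DharmaFECT Duo, using 100 ng of a firefly luc2P reporter carrying the gene's 3' UTR, 20 ng of Renilla pRL-TK control and 2.5 pmol of miRNA mimic. Both luciferase activities were measured 48 h after transfection. The interaction score is the log-transformed firefly/Renilla ratio, converted to a per-plate robust z-score from the median and median absolute deviation and then median-centred per miRNA, with more negative values indicating interaction. Scores were averaged across at least two independent screens.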

NOTCH1 = system: NOTCH1
How it was run: as §1

RB1 = system: RB1
How it was run: as §1

EZH2 = system: EZH2
How it was run: as §1

MYC = system: MYC
How it was run: as §1

FBXW7 = system: FBXW7
How it was run: as §1

PHOX2B = system: PHOX2B
How it was run: as §1

MYT1L = system: MYT1L
How it was run: as §1

MYCN = system: MYCN
How it was run: as §1

BRCA2 = system: BRCA2
How it was run: as §1

HRAS = system: HRAS
How it was run: as §1

PHF6 = system: PHF6
How it was run: as §1

ZEB2 = system: ZEB2
How it was run: as §1

MYB = system: MYB
How it was run: as §1

| Sequence | 3' UTR reporter interaction score (TP53) | 3' UTR reporter interaction score (NOTCH1) | 3' UTR reporter interaction score (RB1) | 3' UTR reporter interaction score (EZH2) | 3' UTR reporter interaction score (MYC) | 3' UTR reporter interaction score (FBXW7) | 3' UTR reporter interaction score (PHOX2B) | 3' UTR reporter interaction score (MYT1L) | 3' UTR reporter interaction score (MYCN) | 3' UTR reporter interaction score (BRCA2) | 3' UTR reporter interaction score (HRAS) | 3' UTR reporter interaction score (PHF6) | 3' UTR reporter interaction score (ZEB2) | 3' UTR reporter interaction score (MYB) |
| --- | --- | --- | --- | --- | --- | --- | --- | --- | --- | --- | --- | --- | --- | --- |
| ACUUGUAUGCUAGCUCAGGUAG | -0.611 | -2.55 | 0.468 | 0.301 | 0.231 | 0.132 | 0.171 | 0.252 | -0.194 | 0.171 | 0.169 | 0.16 | 0.0953 | -0.993 |
| AGACCAUGGGUUCUCAUUGU | -0.82 | -0.0186 | -1.2 | 0.304 | 0.53 | -0.214 | -1.43 | 0.673 | 0.149 | -2.41 | -0.0387 | 1.61 | -1.1 | -0.2 |
| AGACCCUGGUCUGCACUCUAU | -5.07 | -0.49 | -2.99 | 2.76 | 2.47 | 1.02 | -0.928 | -1.4 | 1.92 | 0.647 | 1.38 | -3.41 | -0.0019 | 0.748 |
| AGACCUGGCCCAGACCUCAGC | 0.562 | -0.568 | -2.21 | 0.316 | 0.0891 | 0.099 | -0.381 | -3.18 | 0.863 | -0.79 | -0.381 | -0.218 | -0.702 | 0.0206 |
| AGACUUCCCAUUUGAAGGUGGC | -0.0594 | -0.842 | 0.0148 | 0.311 | -0.381 | 0.497 | 0.285 | 0.482 | -2.21 | -0.566 | -0.109 | 1.01 | 0.705 | 0.287 |
| AGAGGCUGGCCGUGAUGAAUUC | -1.7 | 0.488 | -0.425 | 0.351 | -1.78 | -0.536 | 1.42 | -1.95 | 0.202 | -0.104 | -0.467 | 2.37 | 0.958 | 0.549 |
| AGAGGUAGUAGGUUGCAUAGU | 0.943 | -0.39 | -0.186 | -3.25 | -2.12 | -0.0422 | -0.956 | -0.701 | -3.2 | 0.509 | 1 | 0.956 | -0.685 | 0.728 |
| AGAGGUAUAGGGCAUGGGAAAA | -0.403 | 0.463 | -0.615 | -0.166 | 0.244 | -0.74 | -0.404 | 0.692 | -2.96 | 0.942 | -0.616 | 0.541 | 1.12 | 0.665 |
| AGAUCGACCGUGUUAUAUUCGC | -2.1 | 0.965 | 0.976 | 0.0389 | 0.022 | -0.751 | -0.0818 | -1.38 | 0.592 | 0.451 | 0.57 | 0.689 | -1.03 | -1.19 |
